From article PMC12615518, “Discovery of CRBN-recruiting PROTAC degraders of the METTL3-METTL14 complex” (Medicinal Chemistry Research, 2025)
“Also recorded” adds a separate entry of the source.

Assays:
MV4-11 cells [1] = test: Cell viability assay (CCK-8) in MV4-11 cells; format: cell-based; details: Homo sapiens, MV4-11, 72 h, CCK-8, normalized to vehicle
Method: (§1) We proceeded to evaluate the cytotoxic activities of ZW30441 in AML cell lines by treating MOLM13 and MV4-11 cells with ZW30441 in increasing doses for 72 h.
(§2) Cell Lines and Culture Conditions: The human acute myeloid leukemia (AML) cell lines MOLM13 and MV4.11, as well as the HEK 293T epithelial kidney cell line, were obtained from the American Type Culture Collection (ATCC, USA). AML cells were maintained in RPMI-1640 medium (Gibco, USA) supplemented with 10% fetal bovine serum (FBS) and 1% penicillin-streptomycin (Sigma, Germany). HEK 293T cells were cultured in complete Dulbecco’s Modified Eagle Medium (DMEM) containing 10% FBS and 1% penicillin-streptomycin (Sigma). All cell lines were maintained under standard conditions in a humidified atmosphere at 37 °C with 5% CO₂.
(§3) Cell Viability Assay: AML cells were seeded in 96-well plates at a density of 5,000 cells per well and treated with varying concentrations of ZW30441 or vehicle (dimethyl sulfoxide, DMSO). Each condition was performed in triplicate. After the treatment period, cell viability was measured using the Cell Counting Kit-8 (CCK-8; APExBIO, USA, Cat# K1018) according to the manufacturer’s instructions. Absorbance was recorded at 450 nm using a SPECTROstar microplate reader (BMG LABTECH, USA).

METTL3 = METTL3 (Homo sapiens, UniProt Q86U44); test: Immunoblotting (Western blot) degradation of METTL3 in MV4-11 cells; format: cell-based; design: Following treatment, total cellular proteins were extracted using RIPA buffer; endogenous in cells; host or cells: MV4-11 (MV4.11) human AML cells, ATCC
Sequence of METTL3 (Q86U44 2-580 limits assumed): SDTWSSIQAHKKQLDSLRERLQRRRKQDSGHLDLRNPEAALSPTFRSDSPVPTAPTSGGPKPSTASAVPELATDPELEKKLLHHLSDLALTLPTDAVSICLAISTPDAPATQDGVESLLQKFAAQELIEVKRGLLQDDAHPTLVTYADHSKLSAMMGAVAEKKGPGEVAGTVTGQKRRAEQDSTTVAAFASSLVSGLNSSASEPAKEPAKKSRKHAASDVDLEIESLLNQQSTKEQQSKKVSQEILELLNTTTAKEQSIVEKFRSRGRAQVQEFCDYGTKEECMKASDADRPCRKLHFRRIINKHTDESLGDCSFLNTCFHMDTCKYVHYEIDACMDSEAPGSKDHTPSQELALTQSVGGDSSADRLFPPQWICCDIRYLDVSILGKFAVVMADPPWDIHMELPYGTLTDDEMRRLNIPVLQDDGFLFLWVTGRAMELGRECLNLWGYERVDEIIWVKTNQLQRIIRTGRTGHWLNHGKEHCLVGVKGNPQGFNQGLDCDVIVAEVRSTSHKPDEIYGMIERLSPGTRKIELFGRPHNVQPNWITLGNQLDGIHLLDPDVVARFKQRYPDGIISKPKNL
Sequence of METTL3 (Q9HCE5 whole entry partner): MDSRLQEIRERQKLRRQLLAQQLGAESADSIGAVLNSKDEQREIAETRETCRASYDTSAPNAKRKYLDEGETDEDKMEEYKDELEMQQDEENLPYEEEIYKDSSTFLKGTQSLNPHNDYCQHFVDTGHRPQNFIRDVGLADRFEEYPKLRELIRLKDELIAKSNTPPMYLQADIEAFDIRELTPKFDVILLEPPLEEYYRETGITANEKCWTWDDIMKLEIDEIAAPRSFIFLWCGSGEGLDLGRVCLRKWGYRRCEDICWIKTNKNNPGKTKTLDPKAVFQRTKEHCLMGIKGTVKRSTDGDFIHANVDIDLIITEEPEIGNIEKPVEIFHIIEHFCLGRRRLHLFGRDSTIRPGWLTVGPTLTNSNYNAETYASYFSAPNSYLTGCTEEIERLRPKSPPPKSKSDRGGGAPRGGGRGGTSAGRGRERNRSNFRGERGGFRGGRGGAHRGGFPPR
Method: All cell lines were maintained under standard conditions in a humidified atmosphere at 37 °C with 5% CO₂.
Western Blot Analysis: Following treatment, total cellular proteins were extracted using RIPA buffer (Auragene, Changsha, China). […] After washing, membranes were incubated with horseradish peroxidase (HRP)-conjugated secondary antibodies (anti-rabbit or anti-mouse IgG; 1:5000) for 2 hours at room temperature. Protein bands were visualized using an enhanced chemiluminescence (ECL) detection kit (Amersham Pharmacia), following the manufacturer's protocol. Band intensities were quantified using ImageJ software and normalized to ACTIN as a loading control. Data was analyzed using GraphPad Prism 9.

MV4-11 cells [2] = test: Cell proliferation assay in MV4-11 cells; format: cell-based, human; details: 5 µM, 4-day period
Method: as §1
(§4) Cell Proliferation Assay: To assess cell growth, 1×10⁵ cells were seeded per well in 24-well plates in triplicate and treated with 5 µM concentrations of the test compounds. The culture medium containing the compounds was refreshed every 48 hours, and cell densities were maintained below 1×10⁶ cells/mL through periodic dilution. Cell numbers were measured every other day over a 4-day period using a DS-11 automated cell counter (DeNovix, USA).

MOLM13 cells [3] = test: Cell viability assay (CCK-8) in MOLM13 cells; format: cell-based, human; details: CCK-8, normalized to vehicle
Method: as §1, §2, §3

MOLM13 cells [4] = test: Cell proliferation assay in MOLM13 cells; format: cell-based, human; details: MOLM-13 cells, 5 µM, 4-day period
Method: as §1, §4

[5] = Metabolic stability in human liver microsomes; format: in vitro ADME; details: NADPH, 37 °C
Method: To evaluate the potential for advancing this compound to in vivo studies, the in vitro metabolic stability of this compound was determined in human liver microsomes. […] The flexible linker could then be one potential reason for overall metabolic instability. With this knowledge in hand, further optimization of the lead compound would be necessary before beginning in vivo studies. One potential approach is to introduce more rigid linker systems, thereby reducing molecular flexibility to enhance the metabolic stability while continuing to improve potency.
Materials for Microsomal Stability: Reagent-grade KH2PO4, K2HPO4, acetonitrile, methanol, and formic acid (LC-MS grade) were purchased from Fisher Scientific. Phenacetin (≥98% purity) and verapamil (≥98% purity) were obtained from Sigma-Aldrich. Reduced nicotinamide adenine dinucleotide phosphate (NADPH) and human liver microsomes (Lot No # 1210270) were obtained from MP Biomedicals and BioIVT, respectively. Ultrapure water was used for analysis.
Metabolic Stability: Metabolic stability was assessed using male human liver microsomes. ZW30441 was incubated at a concentration of 1 µM with 1 mg/mL of microsomal protein in 50 mM phosphate buffer (pH 7.4). […] Following protein precipitation, the samples were filtered using a Solvinert 96-well plate, centrifuged at 2000 rpm, and analyzed by LC–MS/MS. […]

## CC1(C)CCN(Cc2cc(F)c(N3CC(=O)NC4(CCN(c5cc(NCCCCCCCCCC(=O)N6CCN(c7ccc8c(c7)CN(C7CCC(=O)NC7=O)C8=O)CC6)ncn5)CC4)C3)cc2F)CC1 (stereo not shown) [Compound 4j, 3-(5-(4-(10-((6-(4-(4-((4,4-dimethylpiperidin-1-yl)methyl)-2,5-difluorophenyl)-2-oxo-1,4,9-triazaspiro[5.5]undecan-9-yl)pyrimidin-4-yl)amino)decanoyl)piperazin-1-yl)-1-oxoisoindolin-2-yl)piperidine-2,6-dione]
MV4-11 cells [1]
  EC50: 2410 nM
METTL3; MV4-11, MV4-11 cells, 24 h
  Dmax: 80%
METTL3; MV4-11 cells, 0.3 µM, 24 h, immunoblotting, nd = no degradation
  % reduction in MV4-11 cells, 0.3 µM, METTL3: 58%
METTL3; MV4-11 cells, 1.0 µM, 24 h, immunoblotting, nd = no degradation
  % reduction in MV4-11 cells, 1.0 µM, METTL3: 81%
METTL3; MV4-11 cells, 24 h, Western blot normalized against ACTIN
  DC50: 440 nM
METTL3; MV4-11 cells, time course at 1 µM
  time of maximum degradation of METTL3: 20 h
MV4-11 cells [2]
  anti-proliferation activity compared to STM2457 and UZH2: enhanced cytotoxicity
MV4-11 cells [2]; listed as ZW30441
  anti-proliferation activity compared to STM2457 and UZH2: more potent anti-proliferation activity; also recorded: superior cellular activity
MOLM13 cells [3]; 72 h, listed as ZW30441
  EC50: 1020 nM
MOLM13 cells [3]; Homo sapiens, MOLM-13, 72 h
  EC50: 1020 nM
MOLM13 cells [4]
  cell growth inhibition compared to STM2457 and UZH2: comparable cell growth inhibition
[5]; 1 µM, 1 mg/mL microsomal protein
  intrinsic clearance (Clint) in human liver microsomes: 152.1 ± 26.1 uL/min/mg of protein
[5]; male, human, liver microsomes, pH 7.4, 1 mg/mL microsomal protein, read-out: half-life (T1/2) in human liver microsomes
  half-life at 1 µM: 4.6 ± 0.7 min
